Assay results taken from US20100316655A1, “COMPOUNDS WITH MDR1-INVERSE ACTIVITY” (priority 2008, published 2010).

Key:
[1] = system: KB-3-1 adenocarcinoma cells; experiment: MTT cytotoxicity assay, parental P-gp-negative KB-3-1 cells; type: cell-based, human
Description: (§1) Exemplary compounds were also tested against the KB-V1 adenocarcinoma cell line that expresses high levels of P-gp (the protein product of MDR1). […] MDR1 selectivity is determined by the ratio of IC50 against KB-3-1 cells divided by its IC50 against KB-V1 cells.
(§2) This example describes evaluation of compounds using the MTT cytotoxicity assay. Cell survival was measured by the MTT (3-(4,5-dimethylthiazol-2-yl)-2,5-diphenyltetrazolium bromide) assay as previously described by Ludwig, J. A. et al. Selective toxicity of NSC73306 in MDR1-positive cells as a new strategy to circumvent multidrug resistance in cancer. […] Briefly, cells were seeded in […] of growth medium at a density of 5000 cells/well in 96-well plates and allowed to establish for 24 hours, at which time serially diluted drugs were added in an additional […] growth medium. Cells were then incubated for 72 hours at 37° C. in humidified 5% CO2, at which time the growth media was drawn, and replaced with MTT in IMDM growth media and incubated for 4 hours. The MTT solution was then drawn from the wells, and […] acidified ethanol solution was added to each well and after 15 minutes absorption at 560 nm was measured.

[2] = system: KB-V1 adenocarcinoma cell line; experiment: MTT cytotoxicity assay, P-gp (MDR1) expressing KB-V1 cells; MDR1 selectivity vs KB-3-1; type: cell-based, human; conditions: for IC50: MTT, 72 hours; for MDR1 selectivity / MDR1 select.: ratio of IC50 against KB-3-1 divided by IC50 against KB-V1; for MDR1 selectivity: >1 = MDR1-inverse activity; for MDR1-inverse selectivity (in words): Example 3, Table 1, KB-V1 vs KB-3-1
Description: as §1, §2

[3] = Homo sapiens, Table 1, 72 hours, KB-3-1 (P-gp-negative)
[4] = Homo sapiens, Table 1, KB-V1 (high P-gp)
[5] = Table 2, 72 hours, unit inferred

SMILES	IC50 [1, 3] [µM]	IC50 [2, 4] [µM]	MDR1-inverse selectivity (in words) [2]	other results
O=C1Nc2ccccc2C1=O	> 50	> 50		
NC(=S)N/N=C/c1ncccc1N	1.4 ± 2.5	5.9 ± 2.6		MDR1 selectivity ([2]; Table 1): 0.2
Cc1cnc(/C=N/NC(N)=S)c2cccc(N)c12	1.9 ± 0.8	2.1 ± 0.3		MDR1 selectivity ([2]; Table 1): 0.9
CC(=O)Nc1ccc(/C=N/NC(N)=S)cc1	> 50	> 50		
COc1ccc(NC(=S)NN=C2Cc3ccccc3C2)cc1	> 50	> 50		
COc1ccc(NC(=S)N/N=C2\CCc3ccccc32)cc1	> 50	> 50		
NC(=S)N/N=C1\C(=O)Nc2ccccc21	> 50	> 50		
NC(=O)N/N=C1\C(=O)Nc2ccccc21	> 50	> 50		
COc1ccc(NC(=S)NN)cc1	> 50	> 50		
COc1ccc(NC(=S)N/N=C2\C(=O)Nc3ccc(S(=O)(=O)O)cc32)cc1	> 50	> 50		
COc1ccc(NC(=S)N/N=C2\C(=O)Nc3c2ccc2ccccc32)cc1	4.4 ± 3.6	30.3 ± 5.9		MDR1 selectivity ([2]; Table 1): 0.1
COc1ccc(NC(=O)N/N=C2\C(=O)Nc3ccccc32)cc1	27.7 ± 3.3	> 50		
COc1ccc(NC(=S)N/N=C/c2ccc(NC(C)=O)cc2)cc1	> 50	> 50		
COc1ccc(NC(=S)N/N=C2\C(=O)Nc3ccc(F)cc32)cc1 [Compound 7, 1-(5′-Fluoroisatin)-4-(4′-methoxyphenyl)-3-thiosemicarbazone]			MDR1-inverse selectivity	
COc1ccc(NC(=S)N/N=C2\C(=O)N(C)c3ccccc32)cc1 [Compound 8, 1-(N-methylisatin)-4-(4′-methoxyphenyl)-3-thiosemicarbazone]			MDR1-inverse selectivity	
COc1ccc(NC(=S)N/N=C/c2ccccn2)cc1 [Compound 10, 1-(2′-Pyridinecarboxaldehyde)-4-(4′-methoxyphenyl)-3-thiosemicarbazone]			MDR1-inverse selectivity	
COc1ccc(NC(=S)N/N=C2\C(=O)Nc3ccc([N+](=O)[O-])cc32)cc1 [Compound 12, 1-(5′-Nitroisatin)-4-(4′-methoxyphenyl)-3-thiosemicarbazone]			MDR1-inverse selectivity	
C=CCNC(=S)N/N=C1\C(=O)Nc2ccccc21 [Compound 13, 1-Isatin-4-allyl-3-thiosemicarbazone]			MDR1-inverse selectivity	
CNC(=S)NN=C1C(=O)Nc2ccccc21 [Compound M1, 1-Isatin-4-methyl-3-thiosemicarbazone]				IC50 [1, 5]: 35.3 µM; IC50 ([2]; Table 2, unit inferred): 19.4 µM; MDR1 select. ([2]; Table 2): 1.82
O=C1Nc2ccccc2C1=NNC(=S)NC1CCCCC1 [Compound M2, 1-Isatin 4-cyclohexyl-3-thiosemicarbazone]				IC50 [1, 5]: 9.14 µM; IC50 ([2]; Table 2, unit inferred): 4.38 µM; MDR1 select. ([2]; Table 2): 2.09
CN(C)c1ccc(NC(=S)NN=C2C(=O)Nc3ccccc32)cc1 [Compound M3, 1-Isatin-4-(4′-(dimethylamino)phenyl)-3-thiosemicarbazone]				IC50 [1, 5]: 6.95 µM; IC50 ([2]; Table 2, unit inferred): 2.23 µM; MDR1 select. ([2]; Table 2): 2.99
O=C1Nc2ccccc2C1=NNC(=S)Nc1ccc(O)cc1 [Compound M4, 1-Isatin-(4′-hydroxyphenyl)-3-thiosemicarbazone]				IC50 [1, 5]: 35.8 µM; IC50 ([2]; Table 2, unit inferred): 21.6 µM; MDR1 select. ([2]; Table 2): 1.66
O=C1Nc2ccc([N+](=O)[O-])cc2C1=NNC(=S)Nc1ccccc1 [NSC716766, 1-(5′-Nitroisatin)-4-phenyl-3-thiosemicarbazone]			MDR1-inverse selectivity	
O=C1Nc2ccc(Br)cc2/C1=N/NC(=S)Nc1ccc(F)cc1 [NSC716771, 1-(5′-Bromoisatin)-4-(4′-fluorophenyl)-3-thiosemicarbazone]			MDR1-inverse selectivity	
O=C1Nc2ccc(Br)cc2/C1=N/NC(=S)Nc1ccc([N+](=O)[O-])cc1 [NSC716772, 1-(5′-Bromoisatin)-4-(4′-nitrophenyl)-3-thiosemicarbazone]			MDR1-inverse selectivity	
